Reference: paper PMC8330742, “New benzothieno[2,3-c]pyridines as non-steroidal CYP17 inhibitors: design, synthesis, anticancer screening, apoptosis induction, and in silico ADME profile studies” (Journal of Enzyme Inhibition and Medicinal Chemistry, 2021)

How the values were obtained:
[1] = system: CAKI-1; experiment: NCI-60 SRB screen; format: cell-based, human; settings: Homo sapiens; single dose 10^−5 M; CAKI-1, Renal cancer; read-out: Growth inhibition (%)
[2] = system: EKVX; experiment: NCI-60 SRB screen; format: cell-based, human; settings: Homo sapiens, single dose 10^−5 M, Non-small cell lung carcinoma, read-out: Growth inhibition (%)
[3] = system: OVCAR-4; experiment: NCI-60 SRB screen; format: cell-based, human; settings: Homo sapiens; single dose 10^−5 M; OVCAR-4, Ovarian cancer; read-out: Growth inhibition (%)
[4] = system: IGROV1; experiment: NCI-60 SRB screen; format: cell-based, human; settings: Homo sapiens, IGROV-1; single dose 10^−5 M; IGROV1, Ovarian cancer; read-out: Growth inhibition (%)
[5] = system: UO-31; experiment: NCI-60 SRB screen; format: cell-based, human; settings: Homo sapiens; single dose 10^−5 M; UO-31, Renal cancer; read-out: Growth inhibition (%)
[6] = system: panel of 60 cancer cell lines; experiment: NCI-60 SRB screen, mean or range over the panel; format: cell-based, human; settings: Homo sapiens; mean over the cell lines; single dose 10^−5 M; read-out: Mean growth inhibition (%)
[7] = system: SF-268; experiment: NCI-60 SRB screen; format: cell-based, human; settings: Homo sapiens; single dose 10^−5 M; SF-268, CNS cancer; read-out: Growth inhibition (%)
[8] = system: MALME-3M; experiment: NCI-60 SRB screen; format: cell-based, human; settings: Homo sapiens, single dose 10^−5 M, Melanoma, read-out: Growth inhibition (%)
[9] = system: HCT-15; experiment: NCI-60 SRB screen; format: cell-based, human; settings: Homo sapiens; single dose 10^−5 M; HCT-15, Colon cancer; read-out: Growth inhibition (%)
[10] = system: OVCAR-3; experiment: NCI-60 SRB screen; format: cell-based, human; settings: Homo sapiens; single dose 10^−5 M; OVCAR-3, Ovarian cancer; read-out: Growth inhibition (%)
[11] = system: 786-0; experiment: NCI-60 SRB screen; format: cell-based; settings: Homo sapiens; single dose 10^−5 M; 786-0, Renal cancer; read-out: Growth inhibition (%)
[12] = system: UACC-257; experiment: NCI-60 SRB screen; format: cell-based, human; settings: Homo sapiens; single dose 10^−5 M; UACC-257, Melanoma; read-out: Growth inhibition (%)
[13] = system: NCI-H23; experiment: NCI-60 SRB screen; format: cell-based, human; settings: Homo sapiens; single dose 10^−5 M; NCI-H23, Non-small cell lung carcinoma; read-out: Growth inhibition (%)
[14] = system: NCI/ADR-RES; experiment: NCI-60 SRB screen; format: cell-based, human; settings: Homo sapiens, single dose 10^−5 M, Ovarian cancer, read-out: Growth inhibition (%)
[15] = system: CCRF-CEM; experiment: NCI-60 SRB screen; format: cell-based; settings: Homo sapiens, single dose 10^−5 M, Leukaemia, read-out: Growth inhibition (%)
[16] = system: A549/ATCC; experiment: NCI-60 SRB screen; format: cell-based, human; settings: Homo sapiens, single dose 10^−5 M, Non-small cell lung carcinoma, read-out: Growth inhibition (%)
[17] = system: SK-OV-3; experiment: NCI-60 SRB screen; format: cell-based, human; settings: Homo sapiens; single dose 10^−5 M; SK-OV-3, Ovarian cancer; read-out: Growth inhibition (%)
[18] = system: SK-MEL-28; experiment: NCI-60 SRB screen; format: cell-based; settings: Homo sapiens; single dose 10^−5 M; SK-MEL-28, Melanoma; read-out: Growth inhibition (%)
[19] = system: K-562; experiment: NCI-60 SRB screen; format: cell-based, human; settings: Homo sapiens, K562; single dose 10^−5 M; K-562, Leukaemia; read-out: Growth inhibition (%)
[20] = system: RXF 393; experiment: NCI-60 SRB screen; format: cell-based, human; settings: Homo sapiens; single dose 10^−5 M; RXF 393, Renal cancer; read-out: Growth inhibition (%)
[21] = system: HT-29; experiment: NCI-60 SRB screen; format: cell-based; settings: Homo sapiens; single dose 10^−5 M; HT-29, Colon cancer; read-out: Growth inhibition (%)
[22] = system: HCT-116; experiment: NCI-60 SRB screen; format: cell-based, human; settings: Homo sapiens; single dose 10^−5 M; HCT-116, Colon cancer; read-out: Growth inhibition (%)
[23] = system: SK-MEL-5; experiment: NCI-60 SRB screen; format: cell-based, human; settings: Homo sapiens; single dose 10^−5 M; SK-MEL-5, Melanoma; read-out: Growth inhibition (%)
[24] = system: SF-295; experiment: NCI-60 SRB screen; format: cell-based, human; settings: Homo sapiens; single dose 10^−5 M; SF-295, CNS cancer; read-out: Growth inhibition (%)
[25] = system: NCI-H322M; experiment: NCI-60 SRB screen; format: cell-based, human; settings: Homo sapiens, single dose 10^−5 M, Non-small cell lung carcinoma, read-out: Growth inhibition (%)
[26] = system: SW-620; experiment: NCI-60 SRB screen; format: cell-based; settings: Homo sapiens; single dose 10^−5 M; SW-620, Colon cancer; read-out: Growth inhibition (%)
[27] = system: KM12; experiment: NCI-60 SRB screen; format: cell-based, human; settings: Homo sapiens; single dose 10^−5 M; KM12, Colon cancer; read-out: Growth inhibition (%)
[28] = system: HOP-92; experiment: NCI-60 SRB screen; format: cell-based, human; settings: Homo sapiens; single dose 10^−5 M; HOP-92, Non-small cell lung carcinoma; read-out: Growth inhibition (%)
[29] = system: COLO 205; experiment: NCI-60 SRB screen; format: cell-based, human; settings: Homo sapiens; single dose 10^−5 M; COLO 205, Colon cancer; read-out: Growth inhibition (%)
[30] = system: HOP-62; experiment: NCI-60 SRB screen; format: cell-based, human; settings: Homo sapiens; single dose 10^−5 M; HOP-62, Non-small cell lung carcinoma; read-out: Growth inhibition (%)
[31] = system: MOLT-4; experiment: NCI-60 SRB screen; format: cell-based; settings: Homo sapiens; single dose 10^−5 M; MOLT-4, Leukaemia; read-out: Growth inhibition (%)
[32] = system: NCI-H522; experiment: NCI-60 SRB screen; format: cell-based, human; settings: Homo sapiens; single dose 10^−5 M; NCI-H522, Non-small cell lung carcinoma; read-out: Growth inhibition (%)
[33] = system: MDA-MB-435; experiment: NCI-60 SRB screen; format: cell-based; settings: Homo sapiens, MDA-MB-435, read-out: Growth inhibition (%)
[34] = system: M14; experiment: NCI-60 SRB screen; format: cell-based, human; settings: Homo sapiens; single dose 10^−5 M; M14, Melanoma; read-out: Growth inhibition (%)
[35] = system: SR; experiment: NCI-60 SRB screen; format: cell-based; settings: Homo sapiens, single dose 10^−5 M, Leukaemia, read-out: Growth inhibition (%)
[36] = system: SN12C; experiment: NCI-60 SRB screen; format: cell-based, human; settings: Homo sapiens, SN12C; single dose 10^−5 M; SN 12 C, Renal cancer; read-out: Growth inhibition (%)
[37] = system: ACHN; experiment: NCI-60 SRB screen; format: cell-based; settings: Homo sapiens, single dose 10^−5 M, Renal cancer, read-out: Growth inhibition (%)
[38] = system: NCI-H226; experiment: NCI-60 SRB screen; format: cell-based, human; settings: Homo sapiens; single dose 10^−5 M; NCI-H226, Non-small cell lung carcinoma; read-out: Growth inhibition (%)
[39] = system: HL-60(TB); experiment: NCI-60 SRB screen; format: cell-based, human; settings: Homo sapiens; single dose 10^−5 M; HL-60(TB), Leukaemia; read-out: Growth inhibition (%)
[40] = system: OVCAR-8; experiment: NCI-60 SRB screen; format: cell-based, human; settings: Homo sapiens; single dose 10^−5 M; OVCAR-8, Ovarian cancer; read-out: Growth inhibition (%)
[41] = system: SK-MEL-2; experiment: NCI-60 SRB screen; format: cell-based, human; settings: Homo sapiens; single dose 10^−5 M; SK-MEL-2, Melanoma; read-out: Growth inhibition (%)
[42] = system: NCI-H460; experiment: NCI-60 SRB screen; format: cell-based, human; settings: Homo sapiens; single dose 10^−5 M; NCI-H460, Non-small cell lung carcinoma; read-out: Growth inhibition (%)
[43] = system: TK-10; experiment: NCI-60 SRB screen; format: cell-based, human; settings: Homo sapiens; single dose 10^−5 M; TK-10, Renal cancer; read-out: Growth inhibition (%)
[44] = system: UACC-62; experiment: NCI-60 SRB screen; format: cell-based, human; settings: Homo sapiens; single dose 10^−5 M; UACC-62, Melanoma; read-out: Growth inhibition (%)

CCN1CCN(C2=C(C#N)c3c(sc4c(F)cccc34)C(c3cccc([N+](=O)[O-])c3)N2)CC1 (stereo not shown) [Compound 8d, 4-Cyano-3-(4-ethylpiperazin-1-yl)-8-fluoro-1-(3-nitrophenyl)-1,2-dihydro [1]benzothieno[2,3-c]pyridine]
inhibition at 10 µM [1]: 25.2%
inhibition at 10 µM [2]: 12.5%
inhibition at 10 µM [3]: -0.52%
inhibition at 10 µM [4]: 23.7%
inhibition at 10 µM [5]: 33.5%
inhibition at 10 µM [6]: 1.33%
inhibition at 10 µM [7]: 4.87%
inhibition at 10 µM [8]: -7.54%
inhibition at 10 µM [9]: -6.34%
inhibition at 10 µM [10]: -2.65%
inhibition at 10 µM [11]: -9.68%
inhibition at 10 µM [12]: -23.7%
inhibition at 10 µM [13]: 3.9%
inhibition at 10 µM [14]: -4.88%
inhibition at 10 µM [15]: -0.37%
inhibition at 10 µM [16]: -2.72%
inhibition at 10 µM [17]: 11.5%
inhibition at 10 µM [18]: -15.8%
inhibition at 10 µM [19]: 4.11%
inhibition at 10 µM [20]: -3.67%
inhibition at 10 µM [21]: -4.51%
inhibition at 10 µM [22]: 1.31%
inhibition at 10 µM [23]: -10.7%
inhibition at 10 µM [24]: -1.19%
inhibition at 10 µM [25]: 1.85%
inhibition at 10 µM [26]: 3.43%
inhibition at 10 µM [27]: -0.49%
inhibition at 10 µM [28]: 18.9%
inhibition at 10 µM [29]: -5.97%
inhibition at 10 µM [30]: 16.1%
inhibition at 10 µM [31]: 8.62%
inhibition at 10 µM [32]: 4.68%
inhibition at 10 µM [33]: -7.84%
inhibition at 10 µM [34]: 4.65%
inhibition at 10 µM [35]: 11.8%
inhibition at 10 µM [36]: 1.95%
inhibition at 10 µM [37]: 9.28%
inhibition at 10 µM [38]: 15.7%
inhibition at 10 µM [39]: -15.6%
inhibition at 10 µM [40]: -1.56%
inhibition at 10 µM [41]: 1.77%
inhibition at 10 µM [42]: -1.12%
inhibition at 10 µM [43]: -37%
inhibition at 10 µM [44]: 6.81%

N#CC1=C(N2CCOCC2)NC(c2cccc([N+](=O)[O-])c2)c2sc3c(F)cccc3c21 (stereo not shown) [Compound 8e, 4-Cyano-3-(4-morpholino)-8-fluoro-1-(3-nitrophenyl)-1,2-dihydro [1]benzothieno[2,3-c]pyridine]
inhibition at 10 µM [1]: 27.4%
inhibition at 10 µM [2]: 9.9%
inhibition at 10 µM [3]: -2.02%
inhibition at 10 µM [4]: 25.4%
inhibition at 10 µM [5]: 38.4%
inhibition at 10 µM [6]: 1.3%
inhibition at 10 µM [7]: 7.51%
inhibition at 10 µM [8]: -7.29%
inhibition at 10 µM [9]: -6.78%
inhibition at 10 µM [10]: 0.17%
inhibition at 10 µM [11]: -9.79%
inhibition at 10 µM [12]: -6.7%
inhibition at 10 µM [13]: 2.35%
inhibition at 10 µM [14]: -0.28%
inhibition at 10 µM [15]: 6.67%
inhibition at 10 µM [16]: 0.1%
inhibition at 10 µM [17]: 7.67%
inhibition at 10 µM [18]: -10.6%
inhibition at 10 µM [19]: 9.66%
inhibition at 10 µM [20]: -2.93%
inhibition at 10 µM [21]: -5.64%
inhibition at 10 µM [22]: 8.86%
inhibition at 10 µM [23]: -14.6%
inhibition at 10 µM [24]: -6.46%
inhibition at 10 µM [25]: 3.9%
inhibition at 10 µM [26]: 5.32%
inhibition at 10 µM [27]: 0.52%
inhibition at 10 µM [28]: 11.8%
inhibition at 10 µM [29]: -17.4%
inhibition at 10 µM [30]: 18%
inhibition at 10 µM [31]: 5.54%
inhibition at 10 µM [32]: 8.18%
inhibition at 10 µM [33]: -7.7%
inhibition at 10 µM [34]: -1.97%
inhibition at 10 µM [35]: 9.91%
inhibition at 10 µM [36]: 6.28%
inhibition at 10 µM [37]: 11.9%
inhibition at 10 µM [38]: 10.4%
inhibition at 10 µM [39]: -16.5%
inhibition at 10 µM [40]: 4.28%
inhibition at 10 µM [41]: 0.38%
inhibition at 10 µM [42]: 2.61%
inhibition at 10 µM [43]: -59.3%
inhibition at 10 µM [44]: 6.7%
